# Source: PMC11202169, “A Novel Fluorescence-Based Microplate Assay for High-Throughput Screening of hSULT1As Inhibitors” (Biosensors, 2024)
# Where two headings read alike, the source gives them in different places.
# Key:
# [1] = test system: hSULT1As; experiment: O-sulfation and spectroscopic changes with hSULT1As (statements for all isoforms together); format: biochemical, human; conditions: substrate 10 μM, all tested hSULT1A isozymes
# Description: (§1) The incubation system consisted of Tris-HCl buffer (pH 7.4, 50 mM), MgCl2 (5 mM), DTT (200 μM), recombinant hSULT1As (29 pmol), and each fluorophore or 4-HN derivative (10 μM). After pre-incubation at 37 °C for 3 min, the reaction was initiated by adding an excess of PAPS (200 μM). Following 1 h incubation, the reaction was terminated with the addition of an equal volume of ice-cold acetonitrile. After centrifugation at 20,000× g for 20 min at 4 °C, the supernatant was collected for HPLC analysis. The mobile phase consisted of 10 mM aqueous ammonium acetate (A) and acetonitrile (B) at a flow rate of 0.4 mL/min. Gradient elution was performed under the following conditions: 0–2.0 min, 5% B; 2.0–10.0 min, 5–95% B; 10.0−12.0 min, 95% B; 12.0–12.5 min, 95–5% B; and 12.5–15.0 min, 5% B.
# The spectroscopic changes in these fluorophores following O-sulfation were investigated. The incubation system was the same as that used in Section 2.3. The emission spectra of eight fluorophores in the presence and absence of three hSULT1A isoforms were determined using BioTek Synergy H1.
# [2] = target: T1, hSULT1A1 (Homo sapiens, UniProt P50225); experiment: hSULT1As reaction phenotyping assay (HPLC), hSULT1A1; format: biochemical; conditions: 4-HN derivative 10 μM
# T1 construct: 6-histidine tag (N); TEV site (N); made in house; host or cells: Escherichia coli BL21 (DE3), pET29a(+)
# Description: as §1
# [3] = target: T2, hSULT1A2 (Homo sapiens, UniProt P50226); experiment: hSULT1As reaction phenotyping assay (HPLC), hSULT1A2; format: biochemical; conditions: 4-HN derivative 10 μM
# T2 construct: 6-histidine tag (N); TEV site (N); made in house; host or cells: Escherichia coli BL21 (DE3), pET29a(+)
# Description: as §1
# [4] = target: T1, hSULT1A1; experiment: Fluorescence-based microplate inhibition assay, hSULT1A1-catalyzed HN-241 4-O-sulfation; format: biochemical; conditions: for activity at 1 µM: read-out: Residue activity (%) hSULT1A1;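 as to all read-outs here: reaction started with 200 µM PAPS at 37 °C, fluorescence read continuously (Ex 350 nm, Em 450 nm), activity expressed relative to DMSO-only control without inhibitor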
# [5] = target: T2, hSULT1A2; experiment: Fluorescence-based microplate inhibition assay, hSULT1A2-catalyzed HN-241 4-O-sulfation; format: biochemical; conditions: for remaining activity at 10 µM: 0.25 h, read-out: Residue activity (%) hSULT1A2
# [6] = target: T3, hSULT1A3 (Homo sapiens, UniProt P0DMM9); experiment: Fluorescence-based microplate inhibition assay, hSULT1A3-catalyzed HN-241 4-O-sulfation; format: biochemical; conditions: for activity at 10 µM: read-out: Residue activity (%) hSULT1A3
# T3 construct: 6-histidine tag (N); TEV site (N); made in house; host or cells: Escherichia coli BL21 (DE3), pET29a(+)
# [7] = test compound 1 μM, HN-241 1 μM, 15 min
# [8] = test compound 10 μM, HN-241 5 μM, 15 min
# [9] = test compound 10 μM, HN-241 10 μM, 15 min
# T3 sequence (P0DMM9 whole entry): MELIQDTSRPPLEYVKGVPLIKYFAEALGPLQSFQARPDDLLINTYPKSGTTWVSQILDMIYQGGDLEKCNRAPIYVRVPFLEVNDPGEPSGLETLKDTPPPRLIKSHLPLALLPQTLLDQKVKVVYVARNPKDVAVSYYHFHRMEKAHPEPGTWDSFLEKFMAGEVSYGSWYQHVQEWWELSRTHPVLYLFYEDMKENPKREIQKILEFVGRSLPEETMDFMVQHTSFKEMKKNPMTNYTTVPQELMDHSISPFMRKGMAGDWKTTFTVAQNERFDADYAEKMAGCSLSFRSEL
# T1 sequence (P50225 whole entry): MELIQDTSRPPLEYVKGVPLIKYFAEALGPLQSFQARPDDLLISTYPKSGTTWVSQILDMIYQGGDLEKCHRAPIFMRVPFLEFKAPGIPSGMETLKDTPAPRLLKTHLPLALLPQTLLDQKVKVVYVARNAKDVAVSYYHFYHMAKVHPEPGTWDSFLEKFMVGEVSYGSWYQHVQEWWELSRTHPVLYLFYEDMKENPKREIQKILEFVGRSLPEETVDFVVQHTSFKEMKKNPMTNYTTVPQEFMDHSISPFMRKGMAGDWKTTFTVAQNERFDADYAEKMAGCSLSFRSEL
# T2 sequence (P50226 whole entry): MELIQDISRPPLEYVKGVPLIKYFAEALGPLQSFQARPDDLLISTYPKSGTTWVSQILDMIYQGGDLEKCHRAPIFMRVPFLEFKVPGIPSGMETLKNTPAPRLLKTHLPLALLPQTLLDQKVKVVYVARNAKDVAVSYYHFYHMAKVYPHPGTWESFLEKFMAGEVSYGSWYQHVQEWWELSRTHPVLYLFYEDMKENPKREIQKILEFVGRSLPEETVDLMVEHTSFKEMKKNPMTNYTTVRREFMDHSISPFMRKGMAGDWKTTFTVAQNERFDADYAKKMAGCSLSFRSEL
smiles,measurement,setting,value
CN(C)CCN1C(=O)c2cccc3c(O)ccc(c23)C1=O [HN-283],O-sulfation by hSULT1As (in words),[1],very slow O-sulfation rates
O=C(O)CCCN1C(=O)c2cccc3c(O)ccc(c23)C1=O [HN-299],O-sulfation by hSULT1As (in words),[1],very slow O-sulfation rates
O=C1c2cccc3c(O)ccc(c23)C(=O)N1CCc1ccccc1 [HN-317],O-sulfation by hSULT1As (in words),[1],very slow O-sulfation rates
O=C1c2cccc3c(O)ccc(c23)C(=O)N1CCc1ccc(F)cc1 [HN-335],O-sulfation by hSULT1As (in words),[1],very slow O-sulfation rates
Cc1ccc(NC(=O)CCCN2C(=O)c3cccc4c(O)ccc(c34)C2=O)cc1 [HN-388],O-sulfation in hSULT1A1 (in words),[2],rapidly metabolized
same,O-sulfation in hSULT1A2 (in words),[3],scarcely metabolized
O=C(/C=C/c1ccc(O[C@@H]2O[C@H](CO)[C@@H](O)[C@H](O)[C@H]2O)cc1)c1ccc(O)cc1O [Neoisoliquiritigenin],Residue activity (%) hSULT1A1,[4]; [7],91.36%
same,Residue activity (%) hSULT1A2,[5]; [8],84.48%
same,Residue activity (%) hSULT1A3,[6]; [9],108.00%
CC1(C)CC[C@]2(C(=O)O)CC[C@]3(C)C(=CC[C@@H]4[C@@]5(C)CC[C@H](O)C(C)(C)[C@@H]5CC[C@]43C)[C@@H]2C1 [Oleanolic acid],activity at 1 µM,[4]; [7],127%
same,remaining activity at 10 µM,[5]; [8],101%
same,activity at 10 µM,[6]; [9],114%
CCCCCCCCCCCCCCCC(=O)O [Palmitic acid],activity at 1 µM,[4]; [7],93.1%
same,remaining activity at 10 µM,[5]; [8],84.8%
same,activity at 10 µM,[6]; [9],113%
COc1ccc(-c2cc(=O)c3c(O)c(OC)c(O)cc3o2)cc1 [Pectolinarigenin],IC50,[4]; hSULT1A1-catalyzed HN-241 4-O-sulfation,9.52 ± 0.39 nM
same,activity at 1 µM,[4]; [7],1.12%
same,remaining activity at 10 µM,[5]; [8],0%
same,IC50,[5]; hSULT1A2-catalyzed HN-241 4-O-sulfation,87.2 ± 3.16 nM
same,IC50,[6]; hSULT1A3-catalyzed HN-241 4-O-sulfation,4360 ± 252 nM
same,activity at 10 µM,[6]; [9],1.34%
COc1cc([C@@H]2c3cc4c(cc3[C@H](O)[C@H]3COC(=O)[C@H]23)OCO4)cc(OC)c1OC [Podophyllotoxin],activity at 1 µM,[4],110%
same,remaining activity at 10 µM,[5],88.9%
same,activity at 10 µM,[6],111%
"O=c1c(O)c(-c2ccc(O)c(O)c2)oc2cc(O)cc(O)c12 [Quercetin, reference compound]",activity at 1 µM,[4]; [7],0%
same,remaining activity at 10 µM,[5]; [8],0.1%
same,activity at 10 µM,[6]; [9],39.9%
C[C@]12CC[C@H](O)C[C@H]1CC[C@@H]1[C@@H]2CC[C@]2(C)[C@@H](c3ccc(=O)oc3)C[C@H]3O[C@]132 [Resibufogenin],activity at 1 µM,[4],127%
same,remaining activity at 10 µM,[5],99.2%
same,activity at 10 µM,[6],113%
O=C(O)c1cc(O)c2c(c1)C(=O)c1cccc(O)c1C2=O [Rhein],activity at 1 µM,[4]; [7],59.4%
same,remaining activity at 10 µM,[5]; [8],0.83%
same,activity at 10 µM,[6]; [9],96.9%
C=C(C)[C@H]1Cc2c(ccc3c2O[C@@H]2COc4cc(OC)c(OC)cc4[C@@H]2C3=O)O1 [Rotenone],activity at 1 µM,[4],109%
same,remaining activity at 10 µM,[5],102%
same,activity at 10 µM,[6],106%
COc1cc2c(c(OC)c1OC)-c1c(cc(OC)c(OC)c1OC)C[C@](C)(O)[C@@H](C)C2 [Schisandrin],Residue activity (%) hSULT1A1,[4]; [7],129.29%
same,Residue activity (%) hSULT1A2,[5]; [8],102.92%
same,Residue activity (%) hSULT1A3,[6]; [9],123.25%
C/C=C(/C)C(=O)O[C@H]1c2cc(OC)c(OC)c(OC)c2-c2c(cc3c(c2OC)OCO3)C[C@H](C)[C@]1(C)O [Schisantherin B],activity at 1 µM,[4]; [7],109%
same,remaining activity at 10 µM,[5]; [8],109%
same,activity at 10 µM,[6]; [9],108%
COc1ccc(-c2cc(=O)c3c(O)cc(O)c(-c4cc(-c5cc(=O)c6c(O)cc(OC)cc6o5)ccc4OC)c3o2)cc1 [Sciadopitysin],Residue activity (%) hSULT1A1,[4]; [7],27.69%
same,Residue activity (%) hSULT1A2,[5]; [8],2.03%
same,Residue activity (%) hSULT1A3,[6]; [9],62.24%
CC(C)=CC[C@@H](O)C1=CC(=O)c2c(O)ccc(O)c2C1=O [Shikonin],activity at 1 µM,[4]; [7],64.5%
same,remaining activity at 10 µM,[5]; [8],18.6%
same,activity at 10 µM,[6]; [9],61%
COC1=C[C@@H]2[C@@H]3Cc4ccc(OC)c(O)c4[C@]2(CCN3C)CC1=O [Sinomenine],activity at 1 µM,[4]; [7],103%
same,remaining activity at 10 µM,[5]; [8],103%
same,activity at 10 µM,[6]; [9],110%
